Data from patent US11267824B2, “Inhibitors of indoleamine 2,3-dioxygenase and/or tryptophan 2,3-dioxygenase” (IDORSIA PHARMACEUTICALS LTD, priority 2017, dated 2022).
Read-outs that look alike come from different tables or passages of the source.

What was measured:
[1] = molecular target: Recombinant full-length human IDO1 (Homo sapiens (Human), UniProt P14902); test: IDO1 enzymatic assay (IDO inhibitory activity); type: biochemical; conditions: 2 nM enzyme, 5 μM L-tryptophan, pH6.5, 30 min pre-incubation, NFK quantified by LCMS; mean values if measured multiple times; read-out: hIDO activity (IC50 in nM)
Outline: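 N-His-tagged enzyme from E. coli at 2 nM in 37.5 mM phosphate pH6.5 with ascorbate, methylene blue, catalase; compounds 10 μM–0.5 nM, 0.6% DMSO, pre-incubated 30 min RT, then 5 μM L-tryptophan for 30 min RT. NFK quantified by LCMS against d5-tryptophan; IC50 from duplicate four-parameter fit, means where repeated.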

[2] = molecular target: Recombinant human TDO comprising amino acids 19-407 (Homo sapiens (Human), UniProt P48775); test: TDO2 enzymatic assay (TDO inhibitory activity); type: biochemical; conditions: 15 nM enzyme, 200 μM L-tryptophan, pH7, 30 min pre-incubation, NFK quantified by LCMS, mean values if measured multiple times
Outline: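 His-tagged enzyme (15 nM, E. coli-expressed) in pH 7 phosphate buffer with ascorbate, catalase, BSA, Tween 20, 0.6% DMSO; 30 min RT pre-incubation with compound (10 μM–0.5 nM), then 200 μM L-tryptophan for 30 min RT. N′-formylkynurenine quantified by LCMS against deuterated tryptophan; IC50 by four-parameter fit, duplicates.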

[3] = read-out: hTDO activity (IC50 in nM)

Recombinant full-length human IDO1, sequence (P14902 whole entry): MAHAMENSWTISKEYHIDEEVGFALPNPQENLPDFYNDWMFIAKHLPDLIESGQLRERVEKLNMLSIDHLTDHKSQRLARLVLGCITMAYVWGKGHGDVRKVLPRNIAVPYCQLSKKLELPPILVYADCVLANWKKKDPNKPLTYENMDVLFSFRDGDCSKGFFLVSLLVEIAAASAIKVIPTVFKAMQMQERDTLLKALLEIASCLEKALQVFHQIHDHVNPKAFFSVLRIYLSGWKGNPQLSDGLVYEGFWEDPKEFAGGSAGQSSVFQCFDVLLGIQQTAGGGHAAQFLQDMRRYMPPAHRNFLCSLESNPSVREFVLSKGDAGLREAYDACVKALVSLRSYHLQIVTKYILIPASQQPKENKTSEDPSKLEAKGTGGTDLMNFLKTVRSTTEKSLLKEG
Recombinant human TDO comprising amino acids 19-407, sequence (P48775 19-406 limits assumed): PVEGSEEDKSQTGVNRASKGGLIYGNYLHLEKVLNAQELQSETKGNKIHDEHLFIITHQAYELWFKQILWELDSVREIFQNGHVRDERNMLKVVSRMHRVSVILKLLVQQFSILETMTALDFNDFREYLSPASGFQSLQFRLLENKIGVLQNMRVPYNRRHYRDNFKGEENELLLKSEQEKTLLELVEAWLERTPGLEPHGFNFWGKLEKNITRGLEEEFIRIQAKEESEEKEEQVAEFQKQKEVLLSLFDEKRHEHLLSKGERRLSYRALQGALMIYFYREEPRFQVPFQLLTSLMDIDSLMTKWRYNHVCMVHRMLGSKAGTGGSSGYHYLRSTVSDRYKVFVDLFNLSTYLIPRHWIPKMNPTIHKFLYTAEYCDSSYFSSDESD

Row | Structure (SMILES) | IC50 [1] | IC50 [2, 3] | IC50 ([2]; hTDO activity (IC50 in nM))
1 | CCc1sc2cncn2c1C(O)CC1CCC(C)(C)CC1 (racemic) [Example 178, rac-2-(4,4-Dimethyl-cyclohexyl)-1-(2-ethyl-imidazo[5,1-b]thiazol-3-yl)-ethanol] | 118 nM | 1290 nM | 
2 | CCc1sc2cncn2c1C(O)CC1CCCC1 (racemic) [Example 179, rac-2-Cyclopentyl-1-(2-ethyl-imidazo[5,1-b]thiazol-3-yl)-ethanol] | 28.9 nM | 203 nM | 
3 | CCc1sc2cncn2c1C(O)C1CC(C)(C)C1 (racemic) [Example 180, rac-(3,3-Dimethyl-cyclobutyl)-(2-ethyl-imidazo[5,1-b]thiazol-3-yl)-methanol] | 6.65 nM | 72.9 nM | 
4 | OC(c1c(-c2cccc(F)c2)sc2cncn12)C1CCCCC1 (racemic) [Example 181, rac-Cyclohexyl-[2-(3-fluoro-phenyl)-imidazo[5,1-b]thiazol-3-yl]-methanol] | 965 nM | 885 nM | 
5 | OC(c1c(-c2ccccc2F)sc2cncn12)C1CCCCC1 (racemic) [Example 182, rac-Cyclohexyl-[2-(2-fluoro-phenyl)-imidazo[5,1-b]thiazol-3-yl]-methanol] | 441 nM | 239 nM | 
6 | Cc1sc2cncn2c1C(O)CC1CCCC1 (racemic) [Example 183, rac-2-Cyclopentyl-1-(2-methyl-imidazo[5,1-b]thiazol-3-yl)-ethanol] | 190 nM | 573 nM | 
7 | OC(c1c(C2(F)CC2)sc2cncn12)C1CCCCC1 (racemic) [Example 184, rac-Cyclohexyl-[2-(1-fluoro-cyclopropyl)-imidazo[5,1-b]thiazol-3-yl]-methanol] | 115 nM | 1760 nM | 
8 | CC(C)n1cc(C(O)c2c(C3CC3)sc3cncn23)cn1 (racemic) [Example 188, rac-(2-Cyclopropyl-imidazo[5,1-b]thiazol-3-yl)-(1-isopropyl-1H-pyrazol-4-yl)-methanol] | 111 nM | > 10200 nM | 
9 | OC(c1cnn(C2CCCC2)c1)c1c(C2CC2)sc2cncn12 (racemic) [Example 189, rac-(1-Cyclopentyl-1H-pyrazol-4-yl)-(2-cyclopropyl-imidazo[5,1-b]thiazol-3-yl)-methanol] | 112 nM | > 10200 nM | 
10 | OC(c1c(C2CC2)sc2cncn12)C12CCC(c3ccccc3)(C1)C2 (racemic) [Example 190, rac-(2-Cyclopropyl-imidazo[5,1-b]thiazol-3-yl)-(4-phenyl-bicyclo[2.1.1]hex-1-yl)-methanol] | 61.2 nM | 891 nM | 
11 | OC(c1c(C2CC2)sc2cncn12)C12CC(c3ccccc3)(C1)C2 (racemic) [Example 191, rac-(2-Cycclopropyl-imidazo[5,1-b]thiazol-3-yl)-(3-phenyl-bicyclo[1.1.1]pent-1-yl)-methanol] | 28.6 nM | 1270 nM | 
12 | Cn1cc(C(O)c2c(C3CC3)sc3cncn23)nn1 (racemic) [Example 192, rac-(2-Cyclopropyl-imidazo[5,1-b]thiazol-3-yl)-(1-methyl-1H-[1,2,3]triazol-4-yl)-methanol] | 590 nM | > 10200 nM | 
13 | CCn1cc(C(O)c2c(C3CC3)sc3cncn23)nn1 (racemic) [Example 193, rac-(2-Cyclopropyl-imidazo[5,1-b]thiazol-3-yl)-(1-ethyl-1H-[1,2,3]triazol-4-yl)-methanol] | 498 nM | > 10200 nM | 
14 | CC(C)n1cc(C(O)c2c(C3CC3)sc3cncn23)nn1 (racemic) [Example 194, rac-(2-Cyclopropyl-imidazo[5,1-b]thiazol-3-yl)-(1-isopropyl-1H-[1,2,3]triazol-4-yl)-methanol] | 304 nM | > 10200 nM | 
15 | OC(c1cn(C2CCCC2)nn1)c1c(C2CC2)sc2cncn12 (racemic) [Example 195, rac-(1-Cyclopentyl-1H-[1,2,3]triazol-4-yl)-(2-cyclopropyl-imidazo[5,1-b]thiazol-3-yl)-methanol] | 96.1 nM | > 10200 nM | 
16 | OC(c1cn(C2CCC2)nn1)c1c(C2CC2)sc2cncn12 (racemic) [Example 196, rac-(1-Cyclobutyl-1H-[1,2,3]triazol-4-yl)-(2-cyclopropyl-imidazo[5,1-b]thiazol-3-yl)-methanol] | 183 nM | > 10200 nM | 
17 | OC(c1cn(C2CCCCC2)nn1)c1c(C2CC2)sc2cncn12 (racemic) [Example 197, rac-(1-Cyclohexyl-1H-[1,2,3]triazol-4-yl)-(2-cyclopropyl-imidazo[5,1-b]thiazol-3-yl)-methanol] | 287 nM | > 10200 nM | 
18 | CCc1sc2cncn2c1C(O)c1cn(C2CCCC2)nn1 (racemic) [Example 198, rac-(1-Cyclopentyl-1H-[1,2,3]triazol-4-yl)-(2-ethyl-imidazo[5,1-b]thiazol-3-yl)-methanol] | 116 nM | > 10200 nM | 
19 | Cc1sc2cncn2c1C(O)c1cn(C2CCCC2)nn1 (racemic) [Example 199, rac-(1-Cyclopentyl-1H-[1,2,3]triazol-4-yl)-(2-methyl-imidazo[5,1-b]thiazol-3-yl)-methanol] | 835 nM | > 10200 nM | 
20 | OC(c1c[nH]nn1)c1c(C2CC2)sc2cncn12 (racemic) [Example 200, rac-(2-Cyclopropyl-imidazo[5,1-b]thiazol-3-yl)-(1H-[1,2,3]triazol-4-yl)-methanol] | 1950 nM | > 10200 nM | 
21 | OC(c1c(C2CC2)sc2cncn12)[C@H]1C[C@@H]2CC[C@H]1C2 (relative stereo) [Example 20, rac-(1R*,2R*,4S*)-Bicyclo[2.2.1]hept-2-yl-(2-cyclopropyl-imidazo[5,1-b]thiazol-3-yl)-methanol] | 16.1 nM |  | 190 nM
22 | OC(c1c([C@@H]2C[C@@H]2F)sc2cncn12)C1CCCCC1 (relative stereo) [Example 186, Cyclohexyl-[2-(cis-2-fluoro-cyclopropyl)-imidazo[5,1-b]thiazol-3-yl]-methanol] | 21.8 nM | 491 nM | 
23 | OC(c1c([C@@H]2C[C@H]2F)sc2cncn12)C1CCCCC1 (relative stereo) [Example 187, Cyclohexyl-[2-(trans-2-fluoro-cyclopropyl)-imidazo[5,1-b]thiazol-3-yl]-methanol] | 18.5 nM | 2260 nM | 
24 | Cc1sc2cncn2c1C(O)[C@H]1C[C@@H]1c1ccccc1 (single isomer, unassigned) [Example 167, rac-(S*)-(2-Methyl-imidazo[5,1-b]thiazol-3-yl)-((1S*,2S*)-2-phenyl-cyclopropyl)-methanol] | 338 nM | > 10200 nM | 
25 | Cc1sc2cncn2c1C(O)[C@H]1C[C@@H]1c1ccccc1 (single isomer, unassigned) [Example 168, rac-(R*)-(2-Methyl-imidazo[5,1-b]thiazol-3-yl)-((1S*,2S*)-2-phenyl-cyclopropyl)-methanol] | 123 nM | 2710 nM | 
26 | O[C@H](c1c(C2CC2)sc2cncn12)C1CCCCC1 [Example 1a, (S)-Cyclohexyl(2-cyclopropylimidazo[5,1-b]thiazol-3-yl)methanol] | 7.5 nM | 115 nM | 
27 | O[C@@H](CC1CCCCC1)c1c(C2CC2)sc2cncn12 [Example 2a, (S)-2-Cyclohexyl-1-(2-cyclopropylimidazo[5,1-b]thiazol-3-yl)ethan-1-ol] | 10.3 nM | 268 nM | 

Now from value to molecule, other results behind:

Row | IC50 [1] | IC50 [2, 3] | Structure (SMILES) | IC50 ([2]; hTDO activity (IC50 in nM))
28 | 11.7 nM | 603 nM | CC(C)c1sc2cncn2c1[C@@H](O)C1CCCCC1 [Example 3a, (S)-Cyclohexyl-(2-isopropyl-imidazo[5,1-b]thiazol-3-yl)-methanol] | 
29 | 15.5 nM | 386 nM | CC(C)c1sc2cncn2c1[C@@H](O)CC1CCCCC1 [Example 4a, (S)-2-Cyclohexyl-1-(2-isopropyl-imidazo[5,1-b]thiazol-3-yl)-ethanol] | 
30 | 16.5 nM | 375 nM | Cc1sc2cncn2c1[C@@H](O)CC1CCCCC1 [Example 5a, (S)-2-Cyclohexyl-1-(2-methyl-imidazo[5,1-b]thiazol-3-yl)-ethanol] | 
31 | 37.3 nM | 60.4 nM | Cc1sc2cncn2c1[C@@H](O)C1CCCCC1 [Example 6a, (S)-Cyclohexyl-(2-methyl-imidazo[5,1-b]thiazol-3-yl)-methanol] | 
32 | 39.7 nM | 138 nM | O[C@H](c1c(C2CCC2)sc2cncn12)C1CCCCC1 [Example 7a, (S)-(2-Cyclobutylimidazo[5,1-b]thiazol-3-yl)(cyclohexyl)methanol] | 
33 | 72.3 nM | 129 nM | O[C@@H](CC1CCCCC1)c1c(C2CCC2)sc2cncn12 [Example 8a, (S)-1-(2-Cyclobutylimidazo[5,1-b]thiazol-3-yl)-2-cyclohexylethan-1-ol] | 
34 | 131 nM | 131 nM | O[C@H](c1c(C2CCCC2)sc2cncn12)C1CCCCC1 [Example 9a, (S)-Cyclohexyl(2-cyclopentylimidazo[5,1-b]thiazol-3-yl)methanol] | 
35 | 190 nM | 164 nM | O[C@@H](CC1CCCCC1)c1c(C2CCCC2)sc2cncn12 [Example 10a, (S)-2-Cyclohexyl-1-(2-cyclopentylimidazo[5,1-b]thiazol-3-yl)ethan-1-ol] | 
36 | 93 nM | 162 nM | O[C@H](c1c(Cl)sc2cncn12)C1CCCCC1 [Example 13a, (S)-(2-Chloroimidazo[5,1-b]thiazol-3-yl)(cyclohexyl)methanol] | 
